In US9452225B2, “GLP-1 prodrugs” (Novo Nordisk A/S, priority 2012, dated 2016):
Numbered stars: 1 amine (or outer) side, 2 acyl side, 3 side chain; on linkers, the order of the positions; unused ones are H or OH. Square brackets hold non-standard residues; d marks the D form. Side chains are listed from the residue outwards. Peptide text beside a SMILES is read from it. * marks the point of attachment. Lactoyl(3-(imidazol-4-yl)) = O=C([C@@H](O)Cc1c[nH]cn1)*; C18 diacid = O=C(O)CCCCCCCCCCCCCCCCC(=O)*; γGlu = O=C(O)[C@H](CCC(=O)[*:2])N[*:1]; AEEA = NCCOCCOCC(=O)O; Aib = CC(C)(N)C(=O)O

Key:
human GLP-1 receptor [1] = biological target: T1, human GLP-1 receptor (Homo sapiens, UniProt P43220); assay: In vitro potency, CRE luciferase reporter gene assay in whole BHK cells; type: cell-based; conditions: 0% HSA
T1 construct: expressed in transfected cells; host or cells: BHK cells, clone FCW467-12A (parent line BHKTS13), membranes
Procedure: The purpose of this example is to test the activity, or potency, of, for example, the GLP-1 parent drugs of the prodrugs of the invention. The in vitro potency is the measure of human GLP-1 receptor activation in a whole cell assay. This method is an alternative to the method of Example 8.
In vitro potency was determined by measuring the response of the human GLP-1 receptor in a reporter gene assay. The assay was performed in a stably transfected BHK cell line that expresses the human GLP-1 receptor and contains the DNA for the cAMP response element (CRE) coupled to a promoter and the gene for firefly luciferase (CRE luciferase). When the human GLP-1 receptor is activated it results in the production of cAMP, which in turn results in the luciferase protein being expressed. When assay incubation is completed the luciferase substrate (luciferin) is added and the enzyme converts luciferin to oxyluciferin to produce bioluminescence. The luminescence is measured as the readout for the assay.
In order to test the binding of the derivatives to albumin, the assay may if desired be performed in the absence of serum albumin as well as in the presence of a considerably higher concentration of serum albumin (1.0% final assay concentration). […]
3) The cells were counted and adjusted to 5×10^3 cells/50 μl (1×10^5 cells/ml) in Assay Medium. […]

human GLP-1 receptor [2] = biological target: T1, human GLP-1 receptor; assay: GLP-1 receptor binding, SPA displacement of 125I-GLP-1, low albumin; conditions: low albumin (0.005% HSA)
Procedure: The purpose of this experiment is to test the receptor binding activity of the GLP-1 parent drugs of the prodrugs of the invention. The receptor binding is a measure of affinity of a parent drug for the human GLP-1 receptor. The parent GLP-1 drugs of Examples B2.1, B2.2, B2.3, B2.4, and B2.5 were tested as described below.
The receptor binding of the GLP-1 drugs to the human GLP-1 receptor was measured in a competitive binding assay. In this type of assay a labelled ligand (in this case ^125I-GLP-1) is bound to the receptor. Each drug is added in a series of concentrations to isolated membranes containing the human GLP-1 receptor and displacement of the labelled ligand is monitored. The receptor binding is reported as the concentration at which half of the labelled ligand is displaced from the receptor, the IC50 value. […]
The cells were grown at 5% CO2 in DMEM, 10% fetal calf serum, 1% Pen/Strep (Penicillin/Streptomycin) and 1.0 mg/ml of the selection marker G418. […] The resulting pellet was re-suspended in buffer 2 and the protein concentration was determined. […]

T1 sequence (P43220 24-463): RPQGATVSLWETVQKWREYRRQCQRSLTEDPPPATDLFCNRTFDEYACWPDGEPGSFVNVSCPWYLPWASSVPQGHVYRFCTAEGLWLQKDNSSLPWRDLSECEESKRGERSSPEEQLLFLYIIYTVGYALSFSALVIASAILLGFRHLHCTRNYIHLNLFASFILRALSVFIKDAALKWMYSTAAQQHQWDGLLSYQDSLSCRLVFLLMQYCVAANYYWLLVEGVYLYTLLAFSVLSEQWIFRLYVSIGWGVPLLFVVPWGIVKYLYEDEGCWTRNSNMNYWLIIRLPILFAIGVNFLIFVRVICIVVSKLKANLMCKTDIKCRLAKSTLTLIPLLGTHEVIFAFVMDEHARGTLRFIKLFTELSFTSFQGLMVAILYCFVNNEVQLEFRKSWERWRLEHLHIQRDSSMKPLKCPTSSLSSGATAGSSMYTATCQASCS

Compound | EC50 (human GLP-1 receptor [1]) [pM] | IC50 (human GLP-1 receptor [2]) [nM]
CC[C@H](C)[C@H](NC(=O)[C@H](Cc1ccccc1)NC(=O)[C@H](CCC(=O)O)NC(=O)[C@H](CCCCNC(=O)COCCOCCNC(=O)COCCOCCNC(=O)CC[C@H](NC(=O)CCCCCCCCCCCCCCCCC(=O)O)C(=O)O)NC(=O)[C@H](C)NC(=O)[C@H](C)NC(=O)[C@H](CCCNC(=N)N)NC(=O)CNC(=O)[C@H](CCC(=O)O)NC(=O)[C@H](CC(C)C)NC(=O)[C@H](Cc1ccc(O)cc1)NC(=O)[C@H](CO)NC(=O)[C@H](CO)NC(=O)[C@@H](NC(=O)[C@H](CC(=O)O)NC(=O)[C@H](CO)NC(=O)[C@@H](NC(=O)[C@H](Cc1ccccc1)NC(=O)[C@@H](NC(=O)CNC(=O)[C@H](CCC(=O)O)NC(=O)C(C)(C)NC(=O)[C@@H](O)Cc1c[nH]cn1)[C@@H](C)O)[C@@H](C)O)C(C)C)C(=O)N[C@@H](C)C(=O)N[C@@H](Cc1c[nH]c2ccccc12)C(=O)N[C@@H](CC(C)C)C(=O)N[C@H](C(=O)N[C@@H](CCCNC(=N)N)C(=O)NCC(=O)N[C@@H](CCCNC(=N)N)C(=O)NCC(=O)O)C(C)C [Example B2.5, N^ε26 [(S)-(22,40-dicarboxy-10,19,24-trioxo-3,6,12,15-tetraoxa-9,18,23-triazatetracontan-1-oyl)]-N^α8-{3-[(2S)-2-hydroxy-3-(1H-imidazol-4-yl)propanoyl}-Aib^8,Arg^23,Arg^34]-GLP-1-(8-37)-peptide] ({Lactoyl(3-(imidazol-4-yl))}-[Aib]EGTFTSDVSSYLEGRAAK([AEEA-AEEA-γGlu-C18 diacid])EFIAWLVRGRG-OH; C-terminus assumed) | 31 | 0.22
CC[C@H](C)[C@H](NC(=O)[C@H](Cc1ccccc1)NC(=O)[C@H](CCCCNC(=O)COCCOCCNC(=O)COCCOCCNC(=O)CC[C@H](NC(=O)CCCCCCCCCCCCCCCCC(=O)O)C(=O)O)NC(=O)[C@H](CCCNC(=N)N)NC(=O)[C@H](C)NC(=O)[C@H](C)NC(=O)[C@H](CCC(N)=O)NC(=O)[C@H](CCC(=O)O)NC(=O)[C@H](CCC(=O)O)NC(=O)[C@H](CC(C)C)NC(=O)[C@H](Cc1ccc(O)cc1)NC(=O)[C@H](CO)NC(=O)[C@H](CO)NC(=O)[C@@H](NC(=O)[C@H](CC(=O)O)NC(=O)[C@H](CO)NC(=O)[C@@H](NC(=O)[C@H](Cc1ccccc1)NC(=O)[C@@H](NC(=O)CNC(=O)[C@H](CCC(=O)O)NC(=O)C(C)(C)NC(=O)[C@@H](O)Cc1c[nH]cn1)[C@@H](C)O)[C@@H](C)O)C(C)C)C(=O)N[C@@H](C)C(=O)N[C@@H](Cc1c[nH]c2ccccc12)C(=O)N[C@@H](CC(C)C)C(=O)N[C@H](C(=O)N[C@@H](CCCNC(=N)N)C(=O)NCC(=O)N[C@@H](CCCNC(=N)N)C(=O)NCC(=O)O)C(C)C [Example B2.4, N^ε27 [(S)-(22,40-dicarboxy-10,19,24-trioxo-3,6,12,15-tetraoxa-9,18,23-triazatetracontan-1-oyl)]-N^α8-{3-[(2S)-2-hydroxy-3-(1H-imidazol-4-yl)propanoyl}-Aib^8,Glu^22,Arg^26,Lys^27,Arg^34]-GLP-1-(8-37)-peptide] ({Lactoyl(3-(imidazol-4-yl))}-[Aib]EGTFTSDVSSYLEEQAARK([AEEA-AEEA-γGlu-C18 diacid])FIAWLVRGRG-OH; C-terminus assumed) | 4 | 0.09
